{"source": "patent US9636314B2", "about": "“Medicament for treatment of non-insulin dependent diabetes mellitus, hypertension and/or metabolic syndrome” (Stevia Limited, priority 2001, dated 2017)", "key": {"[1]": {"conditions": "six in vitro and one in vivo mutagenicity assays; cited from earlier work"}, "rats [2]": {"system": "rats", "conditions": "rat, in vivo; cited from earlier work"}, "isolated mouse islets": {"system": "isolated mouse islets", "test": "glucose-stimulated insulin secretion from isolated mouse islets", "format": "cell-based", "conditions": "for maximal stimulatory dose / glucose-stimulated insulin secretion: NMRI mouse islets; for glucose-stimulated insulin secretion: 16.7 mmol/l, 10^−9-10^−3 mol/l", "method": "Islet from 6-10 NMRI mice were isolated and incubated in the presence of 16.7 mmol/l and 10^−9-10^−3 mol/l stevioside or 10^−9-10^−3 mol/l steviol. The results of these tests are illustrated in FIGS. 4a and 4b where each column represents mean±SEM from 24 incubations of single islets. Black bars in FIG. 4a indicate that stevioside is present and hatched bars indicate that stevioside is absent. Black bars in FIG. 4b indicate that steviol is present and hatched bars indicate that steviol is absent. The influence of the maximal stimulatory doses of 10^−3 mol/l stevioside and 10^−6 mol/l steviol was studied in NMRI mouse islets over a range between 0 and 16.7 mmol/l glucose. […] Black bars in FIG. 7a indicate that stevioside is present and hatched bars indicate that stevioside is absent. Black bars in FIG. 7b indicate that steviol is present and hatched bars indicate that steviol is absent."}, "[3]": {"system": "Salmonella typhirmurium strains", "conditions": "Salmonella typhimurium TA 98 and TA 100; cited from earlier work"}, "rats [4]": {"system": "rats", "test": "intravenous administration to rats (earlier work of the inventors)", "format": "in vivo, rat", "conditions": "i.v."}, "mice": {"system": "mice", "conditions": "mouse, in vivo; cited from earlier work"}, "hamsters [5]": {"system": "hamsters", "conditions": "cited from earlier work"}, "F344 rats": {"system": "F344 rats", "conditions": "cited from earlier work"}, "[6]": {"test": "stevioside infusion at normal blood glucose", "format": "in vivo", "conditions": "bolus or constant intravenous infusion"}, "GK rats [7]": {"system": "GK rats", "test": "i.v. glucose tolerance test with stevioside in GK rats (plasma glucose and insulin)", "format": "in vivo, rat", "conditions": "2.0 g glucose/kg + 0.2 g stevioside/kg i.v.", "method": "In the following examples, the type II diabetic Goto-Kakizaki (GK) rats originated from Takeda Chemical Ind., Tokyo, Japan and were bred locally. As examples of the effects of a compound including the chemical formulas II, stevioside was tested on normal Wistar rats and on GK rats. 2.0 g glucose/kg body weight and 0.2 g stevioside/kg body weight were dissolved in 0.9% saline and infused intravenously. The plasma glucose and insulin levels were measured over a period of 2 hours. The results are shown in FIGS. 2a, 2b, 3a and 3b, were the O-O series (n=6 for Wistar and n=14 for GK) illustrate glucose infused alone and the (2)-(2) series (n=6 for Wistar and n=12 for GK) illustrate the combined glucose and stevioside infusion. Data are given as mean±SEM."}, "[8]": {"conditions": "isolated perfused rat liver; cited from earlier work"}, "hamsters [9]": {"system": "hamsters", "conditions": "doses as high as 2.5 g/kg body weight/day; cited from earlier work"}, "[10]": {"system": "type II diabetic patients", "test": "acute paired cross-over test meal study with oral stevioside", "format": "in vivo, human", "conditions": "1 g stevioside orally with standard meal", "from_the_text": "Twelve type II diabetic patients (4 female/8 males) with a mean age of 65.8±1.6 years, a diabetes duration of 6.0±1.3 years, a mean body mass index of 28.5±1.0, and a mean glycated hemoglobin HbA1c of 7.4±0.4 percent were included in the study. The experiment was an acute, paired, cross-over study in which two test meals were served during the experiments (A: Standard meal supplemented with 1 g of stevioside given orally; B: Standard meal given together with 1 g of gelatine (placebo) given orally. The total energy content of the test meals was 1725 kJ (protein 16 E %, fat 30 E %, carbohydrate 54 E %). Blood samples were drawn from an antecubital vein 30 minutes before and 240 minutes after ingestion of the test meal. The arterial blood pressure was continuously monitored during the experiment. Students paired t-test was used for comparing the effects of stevioside with placebo on the parameters measured. Data are given as mean±SEM."}, "GK-rats": {"system": "GK-rats", "test": "four-week test diets (stevioside and/or soy) in Goto-Kakizaki rats with glucose tolerance test", "format": "in vivo, rat", "conditions": "4 weeks, p<0.05", "method": "Four test diets (A: Standard carbohydrate rich laboratory animal diet (Altromin); n=12 (Alt). B: Altromin supplemented with stevioside (Altromin+Stevioside); n=12; (Alt+Ste). C: Soy plus 20% Altromin; n=12; (Soy). D: Soy plus 20% Altromin plus stevioside; n=12; (Soy+Ste)) were administered for four weeks to four groups of adult rats. Each experimental group consisted of twelve female Goto-Kakizaki wish an age of 9 weeks. The rats received the stevioside (0.025 g/kg body weight/day) with the drinking water. […] Plasma concentrations of glucose, insulin, and glucagon were measured during the glucose tolerance test. Immediately before the glucose tolerance test fasting levels of triglycerides and cholesterol were determined. Concomitantly, the systolic blood pressure was measured using a tail cuff. (Plasma glucose was measured using MPR 3, 166 391, Glucose/GOD-PAP Method from Boehringer Mannheim) (Plasma insulin was measured using Sensitive Rat Insulin RIA, Cat #SRI-13K from Linco) (Plasma glucagon was measured using Glucagon RIA. Cat #GL-32K from Linco) (Blood pressure was measured using TSE Non-Invasive Blood Pressure Monitoring System from Technical Scientific Equipment GmbK) (Plasma cholesterol was measured GOD-PAP from Roche and triglycerides was measured using GHOD-PAP from Roche)"}, "GK rats [11]": {"system": "GK rats", "test": "blood pressure during 6 weeks treatment of GK rats with stevioside", "format": "in vivo, rat", "conditions": "0.025 g/kg/24 h in drinking water, detectable after 2 weeks, then stable", "method": "GK rats were treated with stevioside 0.025 g/kg body weight/24 h for 6 weeks. Stevioside was administered in the drinking water. GK rats receiving drinking water with 0.111 g D-glucose/kg body weight/24 h served as controls. Systolic (FIG. 6a, control: O-O series, stevioside-treated: (2)-(2) series) and diastolic (FIG. 6b, control: O-O series, stevioside-treated: (2)-(2) series) blood pressures were measured on the tail."}, "[12]": {"system": "isolated normal pancreatic rat islets", "conditions": "7 mmol/l D-glucose; stevioside 1.0 mmol/l; cited from earlier work"}, "[13]": {"system": "spontaneously hypertensive rats", "conditions": "cited from earlier work"}, "[14]": {"conditions": "rats; cited from earlier work"}, "GK rats [15]": {"system": "GK rats", "test": "plasma glucagon during glucose tolerance test in GK rats", "format": "in vivo, rat", "conditions": "stevioside 0.2 g/kg i.v. bolus, glucose 2.0 g/kg", "method": "During a glucose tolerance test, an intravenous bolus of stevioside of 0.2 g/kg body weight was injected in GK rats (the (2)-(2) serie (n=6)). GK rats receiving 0.9% saline intravenously served as controls (the O-O serie (n=6)). Glucose 2.0 g/kg body weight was administered as a bolus at timepoint 0 min. The plasma glucagon responses are shown as mean±SEM in FIGS. 5a (control) and 5b (GK). The plasma glucagon was suppressed in the stevioside treated GK rat."}}, "note": "“Also recorded” adds a separate entry of the source."}
{"smiles": "C=C1C[C@@]23CC[C@H]4[C@@](C)(CCC[C@@]4(C)C(=O)O)[C@@H]2CC[C@]1(O)C3", "note": "[steviol]", "values": [{"measurement": "mutagenicity", "setting": "[1]", "value": "dose-related positive responses in some mutagenicity test"}, {"measurement": "LD50", "setting": "rats [2]", "value": "higher than 15 g/kg body weight"}, {"measurement": "stimulation of insulin secretion compared with stevioside", "setting": "isolated mouse islets", "value": "to a greater extent"}, {"measurement": "maximal stimulatory dose", "setting": "isolated mouse islets", "value": "10^−6 mol/l"}, {"measurement": "glucose-stimulated insulin secretion", "setting": "isolated mouse islets", "value": "capable of potentiating glucose-stimulated insulin secretion"}, {"measurement": "mutagenic effect", "setting": "[3]", "value": "no mutagenic effect"}, {"measurement": "effect when administered intravenously to rats", "setting": "rats [4]", "value": "anti-hyperglycemic, glucagonostatic and insulinotropic effect"}, {"measurement": "LD50", "setting": "mice", "value": "higher than 15 g/kg body weight"}, {"measurement": "LD50", "setting": "hamsters [5]; hamster, in vivo", "value": "5-6 g/kg body weight"}, {"measurement": "finding that accompanied lethality", "setting": "hamsters [5]; hamsters, correlated to increases in blood urea nitrogen and creatinine", "value": "degeneration of the proximal tubular cells"}]}
{"smiles": "C=C1C[C@@]23CC[C@H]4[C@@](C)(CCC[C@@]4(C)C(=O)O[C@@H]4O[C@H](CO)[C@@H](O)[C@H](O)[C@H]4O)[C@@H]2CC[C@]1(O[C@@H]1O[C@H](CO)[C@@H](O)[C@H](O)[C@H]1O[C@@H]1O[C@H](CO)[C@@H](O)[C@H](O)[C@H]1O)C3", "note": "[stevioside]", "values": [{"measurement": "carcinogenicity", "setting": "F344 rats", "value": "not carcinogenic"}, {"measurement": "mutagenicity", "setting": "[1]", "value": "not mutagenic"}, {"measurement": "hypoglycemia", "setting": "[6]", "value": "did not cause any hypoglycemia"}, {"measurement": "time at which a significant decrease of plasma glucose was observed", "setting": "GK rats [7]", "value": 30, "unit": "min"}, {"measurement": "blood glucose response to intravenous glucose", "setting": "GK rats [7]; 2 hours", "value": "inhibited blood glucose responses; also recorded: diminished glucose response"}, {"measurement": "insulin response", "setting": "GK rats [7]; compared to the Wistar rat", "value": "pronounced increase in the insulin response"}, {"measurement": "metabolism", "setting": "[8]", "value": "not metabolised"}, {"measurement": "effect on growth or reproduction", "setting": "hamsters [9]", "value": "no effect on growth or reproduction"}, {"measurement": "maximal stimulatory dose", "setting": "isolated mouse islets", "value": "10^−3 mol/l"}, {"measurement": "glucose-stimulated insulin secretion", "setting": "isolated mouse islets", "value": "capable of potentiating glucose-stimulated insulin secretion"}, {"measurement": "mutagenic effect", "setting": "[3]", "value": "no mutagenic effect"}, {"measurement": "effect when administered intravenously to rats", "setting": "rats [4]", "value": "anti-hyperglycemic, glucagonostatic and insulinotropic effect"}, {"measurement": "reduction of the postprandial blood glucose response compared to placebo", "setting": "[10]; mean±SEM, p<0.004", "value": "18±5", "unit": "%"}, {"measurement": "absolute IAUC of postprandial blood glucose", "setting": "[10]; mean±SEM, p<0.02 vs placebo", "value": "522±64", "unit": "mmol/l×240 min"}, {"measurement": "postprandial glucagon like peptide-1 (GLP-1) levels", "setting": "[10]; mean±SEM, p<0.045 vs placebo", "value": "1529±296"}, {"measurement": "postprandial glucagon levels", "setting": "[10]; mean±SEM, p=0.02 vs placebo", "value": "281±33"}, {"measurement": "insulin response (IAUC)", "setting": "[10]; p=0.09, not statistically significant", "value": "tended to stimulate the insulin response"}, {"measurement": "suppression of the systolic blood pressure (Δ), stevioside in combination with Altromin", "setting": "GK-rats", "value": "−28", "unit": "mmHg"}, {"measurement": "suppression of the systolic blood pressure (Δ), stevioside in combination with soy", "setting": "GK-rats", "value": "−21", "unit": "mmHg"}, {"measurement": "decrease in the blood pressure (systolic and diastolic, tail)", "setting": "GK rats [11]", "value": "10-15%"}, {"measurement": "insulin output", "setting": "[12]", "value": "significant increase in insulin output"}, {"measurement": "fall in the systolic blood pressure", "setting": "[13]; 200 mg/kg intravenously (maximum hypotensive effect)", "value": "only small"}, {"measurement": "heart rate", "setting": "[13]; intravenous stevioside", "value": "Neither the heart rate nor the plasma catecholamines were significantly changed"}, {"measurement": "plasma catecholamines", "setting": "[13]; intravenous stevioside", "value": "Neither the heart rate nor the plasma catecholamines were significantly changed"}, {"measurement": "route of excretion", "setting": "[14]", "value": "excreted by the urine"}, {"measurement": "plasma glucagon", "setting": "GK rats [15]", "value": "suppressed"}]}
